Measured values reported in US7728146B2, “Enzyme inhibitors” (Probiodrug AG, priority 2006, dated 2010).

What was measured:
Caco-2 transport assay = assay type: in vitro ADME, human; conditions: human, Caco-2, pH 7.5; for Papp A→B: apical to basal; for Papp B→A: basal to apical
Protocol: (§1) The concentration of compounds in the Caco experiments may be determined from their potency to inhibit recombinant human DP IV.
(§2) Reaction is started by addition of 20 μl rhDP IV and release of pNA was monitored at 405 nm. Samples are analyzed in several dilutions (undiluted, 1:10, 1:[…]). Dilutions are done in the Caco assay buffer. Activity measured with Caco-assay buffer alone is set to 100% and inhibitor concentration is calculated from the dilutions resulting in 20 to 80% inhibition according to the equation for competitive inhibition.
(§3) [formula] • I=inhibitor concentration • v0=velocity of the reaction without inhibitor (Caco assay buffer alone) • vi=velocity of the reaction with inhibitor sample • Ki=Ki-value of the compound • DF=dilution factor of the sample Transport Assay
(§4) The human colon adenocarcinome cell line Caco-2 are grown in 6- or 24-transwell microplates (Costar) for 21 days with MEM-alpha containing 10% FBS and 0.5% Gentamycin (Invitrogen). After 21 days of cultivation integrity of the cell layer are assessed by measurement of the transepitelial electrical resistance.
(§5) Transport measurements are carried out in triplicates at a pH of 7.5. For each compound and direction (apical to basal (a-b), basal to apical (b-a)) two separate experiments are done. Samples are collected from the donor and acceptor compartments at the beginning of the experiment and after 60 min (for 6-well plates, Donor at 0 and 120 min, Acceptor at 15, 30, 60 and 120 min).
(§6) Samples are analyzed in several dilutions for their ability to inhibit human recombinant DP IV and compound concentrations may be calculated using the prior determined Ki-value (see above).
(§7) The permeability coefficient Papp is calculated according to the following equation:
(§8) [formula] • VA=Volume of the acceptor compartment • A=Area of the transwell membrane • t=sampling time • cAt=concentration in the acceptor compartment at sampling time • CDO=concentration in the donor compartment at t=0
(§9) Papp-values>1e-5 cm/s are assessed as good permeable, value<1e-6 cm/s as not permeable. Papp-values in between as medium permeable. Compounds where no significant difference were found between a-b and b-a transport are assessed to be passive transported.

Caco-2 monolayer = experiment: Caco-2 transport assay; assay type: in vitro ADME, human; conditions: assessment of permeability and transport type
Protocol: as §1, §2, §3, §4, §5, §6, §7, §8, §9

male Sprague Dawley rats = experiment: Tetradic encounter test; assay type: in vivo, rat; conditions: acute
Protocol: Example 130b was dissolved in 0.5% Natrosol and administered acutely p.o. (gavage) 40 minutes before behavioural testing. Example 130b was administered in doses of 0.3, 1.0 and 3.0 mg/kg in a volume of 5 ml/kg, each.
Chlordiazepoxide was dissolved in 0.9% NaCl and administered acutely i.p. 30 minutes before behavioural testing with a dose of 3 mg/kg in a volume of 1 ml/kg (test group TG 2, see below). The solution was prepared freshly every day.
216 male Sprague Dawley rats. The animals were 6 weeks old at the start of the study. They were housed in groups of 4 animals (“acute animals”) or in single cages (“chronic animals”) at 12 h/12 h light/dark (start of the light phase at 2 a.m.), 20° C., 60% rH. Animals were provided by Elevage Janvier, France.
Animals were kept in group cages until compound administration. Each two animals derived from the same home cage and were treated the same way. During the time from compound administration to the beginning of the test, animals were kept in single cages for 40 minutes.
The tetradic encounter test was conducted according to the protocol of Wolffgramm (1990). Four rats were placed for 15 minutes in an open field arena of 1 m×1 m; all four animals of an encounter group were treated in the same way, they received either test compound, reference compound, or vehicle. Each two animals were from the same home cage. The open field was illuminated by dim red light (3-4 Lux). Rats were familiar with the open field and their encounter partners by means of three prior training sessions (no compound administration). Testing (compound administration) started at 2:20 p.m. (dark phase). All animals were marked individually by means of black symbols on their back. Behaviour was recorded on videotapes. Each animal was tested once.
Raw data were provided as videotapes and protocol sheets of application and test time. From the videotapes the trajectory of the animal's movement was tracked and coordinates and time stamps were continually noted in a data file. The resulting file was transferred to a computer program for further analysis.
The following parameters were calculated for the whole test phase (15 minutes): • Total distance travelled (m) • Use of available space (%) • Portion of time spent in the centre (%) • Portion of time spent in the corners (%) • Mean distance to the encounter mates (cm) • Distribution of spatial distance to the encounter mates • Dynamics of spatial distance to the encounter mates (cross-distance course) Social Behaviour
Raw data were provided as videotapes and protocol sheets of application and test time. From the videotapes the social behaviour of each rat was rated by an experienced ethologist using a list of predefined behavioural patterns. The observer was blind to the animal's treatment. The resulting file containing the time series of behavioural patterns was transferred to a computer program for further analysis.
The following parameters were calculated for the whole test phase (15 minutes): • Number of non-agonistic social acts (N) • Number of aggressive acts (N) • Number of defensive acts (N) • Time spent with non-agonistic social acts (%) • Time spent with aggressive acts (%) • Time spent with defensive acts (%) • Behavioural synchrony
To quantify inter-individual synchrony, coefficients of synchrony were calculated that base on rank correlation coefficients. For this purpose, the time series of behavioural patterns was subdivided into equidistant interval sections (here: 1 s intervals). To calculate synchrony coefficients, the user must define “pattern sets of interest”. Each set contained one or more behavioural patterns that were taken together for the analysis (e.g. “friendly contact” or “all kinds of social interaction”). […]

[1] = vs vehicle, Chlordiazepoxide 3 mg/kg i.p., Example 130b low and high dose (0.3 and 3.0 mg/kg p.o.)
[2] = vs vehicle, Example 130b high dose (3.0 mg/kg p.o.)

SMILES	Papp A→B (Caco-2 transport assay) [×10⁻⁶ cm/s]	Papp B→A (Caco-2 transport assay) [×10⁻⁶ cm/s]	Transport (Caco-2 monolayer)	locomotor activity (male Sprague Dawley rats; tetradic encounter, Chlordiazepoxide 3 mg/kg i.p., Example 130b 0.3-3.0 mg/kg p.o.)	inter-individual synchrony of behaviour (male Sprague Dawley rats; vs vehicle, Chlordiazepoxide 3 mg/kg i.p., Example 130b 0.3, 1.0, 3.0 mg/kg p.o. (especially the high dose increased synchrony))	distance to the encounter mates (male Sprague Dawley rats; [1])	number of defensive acts (male Sprague Dawley rats; [1])	time spent in a distance of 75-100 cm to encounter mates (male Sprague Dawley rats; vs vehicle, Chlordiazepoxide 3 mg/kg i.p., Example 130b low and medium dose (0.3 and 1.0 mg/kg p.o.))	time spent in a distance of 25-50 cm to encounter mates (male Sprague Dawley rats; vs vehicle, Chlordiazepoxide 3 mg/kg i.p., Example 130b low dose (0.3 mg/kg p.o.))	time spent with friendly (non-agonistic) social behaviour (male Sprague Dawley rats; vs vehicle, Chlordiazepoxide 3 mg/kg i.p., Example 130b medium dose (1.0 mg/kg p.o.))	time spent in a distance of 50-75 cm to encounter mates (male Sprague Dawley rats; [2])	time spent in a distance of less than 25 cm to encounter mates (male Sprague Dawley rats; [2])	time spent in the centre of the open field (male Sprague Dawley rats; [2])	usage of available space (male Sprague Dawley rats; [2])	distance travelled during the first five minutes of the test (male Sprague Dawley rats; vs vehicle, Example 130b low and high dose (0.3 and 3.0 mg/kg p.o.))	time spent in a distance of more than 100 cm to encounter mates (male Sprague Dawley rats; vs vehicle, Example 130b low dose (0.3 mg/kg p.o.))
NCc1c(-c2ccc(Cl)cc2Cl)ncn1Cc1ccccc1 [Example 24b, (1-benzyl-4-(2,4-dichlorophenyl)-1H-imidazol-5-yl)methanamine]	37.5	41.7	good, passive	–	–	–	–	–	–	–	–	–	–	–	–	–
NCc1c(-c2ccc(Cl)cc2Cl)ncn1Cc1ccccn1 [Example 39b]	40.6	42.5	good, passive	–	–	–	–	–	–	–	–	–	–	–	–	–
NCc1c(-c2ccc(Cl)cc2Cl)ncn1Cc1cccnc1 [Example 121b, (4-(2,4-dichlorophenyl)-1-((pyridin-3-yl)methyl)-1H-imidazol-5-yl)methanamine]	36.4	40.4	good, passive	–	–	–	–	–	–	–	–	–	–	–	–	–
NCc1c(-c2ccc(Cl)cc2Cl)ncn1Cc1ccsc1 [Example 130b, (4-(2,4-dichlorophenyl)-1-((thiophen-3-yl)methyl)-1H-imidazol-5-yl)methanamine]	40	31.2	good, passive	altered locomotor activity	strong effects	significantly higher distance	statistically significant increase	higher amount	significantly lower amount of time	tended to increase	higher amount	significantly lower amount of time	significantly increased	significantly increased	statistically significant increase	higher amount
